Laboratory results from PMC3214022, “Plasmodium falciparum Parasites Are Killed by a Transition State Analogue of Purine Nucleoside Phosphorylase in a Primate Animal Model” (PLoS ONE, 2011).

Experiment: Weights, CBC, blood chemistry and signs of toxicity, Table S1 sheet PD-2 (infected Aotus, twice a day for seven days)
Format: in vivo, Aotus lemurinus lemurinus
Settings: oral 10 mg/kg twice a day/7 days
Procedure: Laboratory bred Aotus lemurinus lemurinus monkeys (0.75–0.89 kg) were maintained as described. […] Blood samples were collected before the treatment started (t = 0), 0.05 h, 0.5 h, 1 h, 2 h, 6 h, 24 h, 48 h, and 6, 12 and 18 days after the first dose from each monkey and processed as described below. Pharmacokinetic parameters were calculated using PKSolver. For efficacy studies, Aotus monkeys were inoculated intravenously with 5×10^6 parasites of the FVO strain of P. falciparum in an approved treatment protocol. […] Parasitaemia was determined by Giemsa-stained thick blood smears prepared daily from the marginal ear vein [41]. Blood samples were collected from each monkey and transferred to tubes containing lithium heparin, centrifuged and both plasma and blood cells were frozen at −80 °C until analysis. Animals received a physical examination and blood chemistry profiles were monitored after treatment as described previously. Any monkey not responding appropriately to treatment was cured of its infection with mefloquine (40 mg kg^−1). […] The day of clearance is defined as the first of three consecutive days in which the thick blood films are parasite negative. The day of recrudescence is the first of three consecutive days of positive thick blood films after a period of clearance. Suppression is defined as a transient decrease in the parasite count post-treatment without clearance.

With `Nc1nc2c(CN3CC(O)C(CO)C3)c[nH]c2c(=O)[nH]1` (stereo not shown) [BCX4945, 4′-deaza-1′-aza-2′-deoxy-1′-(9-methylene)-Immucillin-G] as the compound, how does the WEIGHT (26027 Male (ITM3), day 15) read?
The WEIGHT was 890 g.

What about the “Blood Urea Nitrogen” value (26027 Male (ITM3), day 18) of the same compound?
Its value is 20.6 mg/dL.

What about the Creatine (26027 Male (ITM3), day 18) of the same compound?
Its Creatine is 0.5 mg/dL.

And the Erythrocytes (26027 Male (ITM3), day 18)?
The Erythrocytes was 4.74e+06 µL⁻¹.

What about the “Glutamate Pyruvate Transaminase” value (26027 Male (ITM3), day 18) of the same compound?
The value was 27.5 U/L.

And the “Granulocytes (%)” value (26027 Male (ITM3), day 18)?
The value was 37%.

And the “Granulocytes (x 103/ul)” value (26027 Male (ITM3), day 18)?
The value was 3 x 103/ul.

What about the Hematocrit (26027 Male (ITM3), day 18) of the same compound?
Its Hematocrit is 39.9%.

What about the Hemoglobin (26027 Male (ITM3), day 18) of the same compound?
The Hemoglobin was 14.1 g/dL.

What about the Leucocytes (26027 Male (ITM3), day 18) of the same compound?
Its Leucocytes is 8100 µL⁻¹.

And the “Lymphocytes (%)” value (26027 Male (ITM3), day 18)?
Its value is 58.1%.

And the “Lymphocytes (x 103/ul)” value (26027 Male (ITM3), day 18)?
The value was 4.7 x 103/ul.

And the “Mean Corpuscular Hemoglobin” value (26027 Male (ITM3), day 18)?
The value was 29.9 pg.

What about the “Mean Corpuscular Volume” value (26027 Male (ITM3), day 18) of the same compound?
The value was 84.3 fL.

What about the “Mean Hemoglobin Content” value (26027 Male (ITM3), day 18) of the same compound?
Its value is 35.4 g/dL.

And the “Mean Platelet Volume” value (26027 Male (ITM3), day 18)?
Its value is 11.7 fL.

What about the “Monocytes (%)” value (26027 Male (ITM3), day 18) of the same compound?
The value was 4.9%.

What about the “Monocytes (x 103/ul)” value (26027 Male (ITM3), day 18) of the same compound?
The value was 0.4 x 103/ul.

What about the Platelets (26027 Male (ITM3), day 18) of the same compound?
Its Platelets is 208000 µL⁻¹.

And the “Red Cell Distribution Width” value (26027 Male (ITM3), day 18)?
The value was 17.7%.

What about the Reticulocytes (26027 Male (ITM3), day 18) of the same compound?
The Reticulocytes was 1.9%.

What about the WEIGHT (26027 Male (ITM3), day 18) of the same compound?
Its WEIGHT is 900 g.

What about the Erythrocytes (26027 Male (ITM3), day 25) of the same compound?
Its Erythrocytes is 4.04e+06 µL⁻¹.

What about the “Granulocytes (%)” value (26027 Male (ITM3), day 25) of the same compound?
Its value is 17.2%.

And the “Granulocytes (x 103/ul)” value (26027 Male (ITM3), day 25)?
The value was 2.5 x 103/ul.

What about the Hematocrit (26027 Male (ITM3), day 25) of the same compound?
Its Hematocrit is 35.7%.

What about the Hemoglobin (26027 Male (ITM3), day 25) of the same compound?
The Hemoglobin was 12.2 g/dL.

What about the Leucocytes (26027 Male (ITM3), day 25) of the same compound?
The Leucocytes was 14500 µL⁻¹.

And the “Lymphocytes (%)” value (26027 Male (ITM3), day 25)?
The value was 74.8%.

What about the “Lymphocytes (x 103/ul)” value (26027 Male (ITM3), day 25) of the same compound?
The value was 10.8 x 103/ul.

What about the “Mean Corpuscular Hemoglobin” value (26027 Male (ITM3), day 25) of the same compound?
Its value is 30.1 pg.

What about the “Mean Corpuscular Volume” value (26027 Male (ITM3), day 25) of the same compound?
Its value is 88.4 fL.

And the “Mean Hemoglobin Content” value (26027 Male (ITM3), day 25)?
The value was 34 g/dL.

And the “Mean Platelet Volume” value (26027 Male (ITM3), day 25)?
Its value is 13.3 fL.

And the “Monocytes (%)” value (26027 Male (ITM3), day 25)?
Its value is 8%.

And the “Monocytes (x 103/ul)” value (26027 Male (ITM3), day 25)?
Its value is 1.2 x 103/ul.

What about the Platelets (26027 Male (ITM3), day 25) of the same compound?
The Platelets was 118000 µL⁻¹.

And the “Red Cell Distribution Width” value (26027 Male (ITM3), day 25)?
The value was 17.3%.

And the Reticulocytes (26027 Male (ITM3), day 25)?
Its Reticulocytes is 3.1%.

And the WEIGHT (26027 Male (ITM3), day 25)?
The WEIGHT was 888 g.

And the “Blood Urea Nitrogen” value (26027 Male (ITM3), day -10)?
Its value is 18.35 mg/dL.

What about the Creatine (26027 Male (ITM3), day -10) of the same compound?
Its Creatine is 0.5 mg/dL.

And the Erythrocytes (26027 Male (ITM3), day -10)?
Its Erythrocytes is 5.73e+06 µL⁻¹.

What about the “Glutamate Pyruvate Transaminase” value (26027 Male (ITM3), day -10) of the same compound?
Its value is 23.9 U/L.

What about the “Granulocytes (%)” value (26027 Male (ITM3), day -10) of the same compound?
Its value is 15.9%.

What about the “Granulocytes (x 103/ul)” value (26027 Male (ITM3), day -10) of the same compound?
The value was 1.6 x 103/ul.

And the Hematocrit (26027 Male (ITM3), day -10)?
The Hematocrit was 46.1%.

And the Hemoglobin (26027 Male (ITM3), day -10)?
The Hemoglobin was 17.0 g/dL.

And the Leucocytes (26027 Male (ITM3), day -10)?
The Leucocytes was 10200 µL⁻¹.

And the “Lymphocytes (%)” value (26027 Male (ITM3), day -10)?
The value was 78%.

And the “Lymphocytes (x 103/ul)” value (26027 Male (ITM3), day -10)?
The value was 8 x 103/ul.

What about the “Mean Corpuscular Hemoglobin” value (26027 Male (ITM3), day -10) of the same compound?
Its value is 29.6 pg.

What about the “Mean Corpuscular Volume” value (26027 Male (ITM3), day -10) of the same compound?
The value was 80.5 fL.

And the “Mean Hemoglobin Content” value (26027 Male (ITM3), day -10)?
The value was 36.8 g/dL.

And the “Mean Platelet Volume” value (26027 Male (ITM3), day -10)?
The value was 11.9 fL.

And the “Monocytes (%)” value (26027 Male (ITM3), day -10)?
Its value is 6.1%.

And the “Monocytes (x 103/ul)” value (26027 Male (ITM3), day -10)?
The value was 0.6 x 103/ul.

And the Platelets (26027 Male (ITM3), day -10)?
The Platelets was 253000 µL⁻¹.

And the “Red Cell Distribution Width” value (26027 Male (ITM3), day -10)?
Its value is 11.7%.

What about the Reticulocytes (26027 Male (ITM3), day -10) of the same compound?
The Reticulocytes was 1.1%.

What about the WEIGHT (26027 Male (ITM3), day -10) of the same compound?
Its WEIGHT is 895 g.

What about the “Blood Urea Nitrogen” value (26047 Female (ITM1), day 8) of the same compound?
The value was 18.65 mg/dL.

What about the Creatine (26047 Female (ITM1), day 8) of the same compound?
Its Creatine is 0.539 mg/dL.

And the Erythrocytes (26047 Female (ITM1), day 8)?
Its Erythrocytes is 4.63e+06 µL⁻¹.

What about the “Glutamate Pyruvate Transaminase” value (26047 Female (ITM1), day 8) of the same compound?
Its value is 13.2 U/L.

What about the “Granulocytes (%)” value (26047 Female (ITM1), day 8) of the same compound?
Its value is 10%.

And the “Granulocytes (x 103/ul)” value (26047 Female (ITM1), day 8)?
Its value is 1.3 x 103/ul.

And the Hematocrit (26047 Female (ITM1), day 8)?
Its Hematocrit is 36.7%.

And the Hemoglobin (26047 Female (ITM1), day 8)?
Its Hemoglobin is 13.2 g/dL.

And the Leucocytes (26047 Female (ITM1), day 8)?
Its Leucocytes is 12900 µL⁻¹.

And the “Lymphocytes (%)” value (26047 Female (ITM1), day 8)?
Its value is 74.5%.

What about the “Lymphocytes (x 103/ul)” value (26047 Female (ITM1), day 8) of the same compound?
Its value is 9.6 x 103/ul.

What about the “Mean Corpuscular Hemoglobin” value (26047 Female (ITM1), day 8) of the same compound?
Its value is 28.5 pg.

And the “Mean Corpuscular Volume” value (26047 Female (ITM1), day 8)?
The value was 79.3 fL.

And the “Mean Hemoglobin Content” value (26047 Female (ITM1), day 8)?
Its value is 35.9 g/dL.

And the “Mean Platelet Volume” value (26047 Female (ITM1), day 8)?
Its value is 9.7 fL.

What about the “Monocytes (%)” value (26047 Female (ITM1), day 8) of the same compound?
The value was 15.5%.

What about the “Monocytes (x 103/ul)” value (26047 Female (ITM1), day 8) of the same compound?
The value was 2 x 103/ul.

What about the Platelets (26047 Female (ITM1), day 8) of the same compound?
Its Platelets is 297000 µL⁻¹.

And the “Red Cell Distribution Width” value (26047 Female (ITM1), day 8)?
Its value is 12.5%.

What about the Reticulocytes (26047 Female (ITM1), day 8) of the same compound?
Its Reticulocytes is 2.8%.

What about the WEIGHT (26047 Female (ITM1), day 8) of the same compound?
The WEIGHT was 814 g.

And the “Blood Urea Nitrogen” value (26047 Female (ITM1), day 12)?
Its value is 10.55 mg/dL.

What about the Creatine (26047 Female (ITM1), day 12) of the same compound?
The Creatine was 0.5 mg/dL.

And the Erythrocytes (26047 Female (ITM1), day 12)?
The Erythrocytes was 4.11e+06 µL⁻¹.

What about the “Glutamate Pyruvate Transaminase” value (26047 Female (ITM1), day 12) of the same compound?
The value was 27.3 U/L.

What about the “Granulocytes (%)” value (26047 Female (ITM1), day 12) of the same compound?
The value was 21.3%.

And the “Granulocytes (x 103/ul)” value (26047 Female (ITM1), day 12)?
The value was 3.6 x 103/ul.

What about the Hematocrit (26047 Female (ITM1), day 12) of the same compound?
Its Hematocrit is 32.7%.

What about the Hemoglobin (26047 Female (ITM1), day 12) of the same compound?
Its Hemoglobin is 11.6 g/dL.

And the Leucocytes (26047 Female (ITM1), day 12)?
Its Leucocytes is 16800 µL⁻¹.
